pIC50, pKi: −log10 of the molar value.
What was measured:
[1] = molecular target: T1, Adrenergic receptor alpha-2 (Rattus norvegicus, UniProt P22086+P19328+P22909); assay: Inhibitory concentration against Alpha-2 adrenergic receptor; assay type: protein assay
T1 sequence (P22086 whole entry): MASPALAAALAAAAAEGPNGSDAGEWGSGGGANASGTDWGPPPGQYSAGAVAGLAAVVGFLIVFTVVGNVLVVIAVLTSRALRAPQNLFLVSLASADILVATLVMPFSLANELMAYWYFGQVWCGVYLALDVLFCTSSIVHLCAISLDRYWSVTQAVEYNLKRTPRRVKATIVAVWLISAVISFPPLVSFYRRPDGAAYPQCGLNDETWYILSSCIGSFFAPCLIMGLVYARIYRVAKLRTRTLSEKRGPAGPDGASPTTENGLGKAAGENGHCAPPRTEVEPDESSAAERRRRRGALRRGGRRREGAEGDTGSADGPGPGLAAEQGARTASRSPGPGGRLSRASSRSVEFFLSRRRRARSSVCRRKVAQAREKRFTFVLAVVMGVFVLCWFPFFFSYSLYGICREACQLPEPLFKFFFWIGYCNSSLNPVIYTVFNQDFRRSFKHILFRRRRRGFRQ
T1 sequence (P19328 whole entry): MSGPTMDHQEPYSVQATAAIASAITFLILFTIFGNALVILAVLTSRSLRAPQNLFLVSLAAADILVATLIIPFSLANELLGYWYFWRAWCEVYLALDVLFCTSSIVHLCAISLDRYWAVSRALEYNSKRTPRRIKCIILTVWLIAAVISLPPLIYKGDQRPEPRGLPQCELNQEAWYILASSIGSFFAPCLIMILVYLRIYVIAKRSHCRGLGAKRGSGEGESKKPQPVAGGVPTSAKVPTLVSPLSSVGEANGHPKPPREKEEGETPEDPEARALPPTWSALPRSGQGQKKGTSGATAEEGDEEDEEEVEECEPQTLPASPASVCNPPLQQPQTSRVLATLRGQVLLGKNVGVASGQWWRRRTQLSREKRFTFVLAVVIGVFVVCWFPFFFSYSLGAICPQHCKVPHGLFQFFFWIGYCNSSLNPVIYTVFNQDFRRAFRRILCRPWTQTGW
T1 sequence (P22909 whole entry): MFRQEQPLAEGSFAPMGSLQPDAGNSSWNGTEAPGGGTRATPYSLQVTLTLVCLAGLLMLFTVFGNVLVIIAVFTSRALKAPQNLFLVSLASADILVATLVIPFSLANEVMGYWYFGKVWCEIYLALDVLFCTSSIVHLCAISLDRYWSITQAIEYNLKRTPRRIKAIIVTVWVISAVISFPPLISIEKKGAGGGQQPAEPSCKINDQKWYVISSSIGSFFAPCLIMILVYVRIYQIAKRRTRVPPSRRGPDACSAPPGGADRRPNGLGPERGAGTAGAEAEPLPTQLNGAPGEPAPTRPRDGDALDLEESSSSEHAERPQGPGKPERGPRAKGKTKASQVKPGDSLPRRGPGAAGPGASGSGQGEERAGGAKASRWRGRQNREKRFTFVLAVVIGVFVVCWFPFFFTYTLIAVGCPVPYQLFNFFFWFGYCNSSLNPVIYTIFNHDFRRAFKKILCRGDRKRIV

[2] = molecular target: T2, Adrenergic receptor alpha-1 (Rattus norvegicus, UniProt P15823+P23944+P43140); assay: Inhibition of Alpha-1 adrenergic receptor in rat cortex membrane; assay type: cell membranes
T2 sequence (P15823 whole entry): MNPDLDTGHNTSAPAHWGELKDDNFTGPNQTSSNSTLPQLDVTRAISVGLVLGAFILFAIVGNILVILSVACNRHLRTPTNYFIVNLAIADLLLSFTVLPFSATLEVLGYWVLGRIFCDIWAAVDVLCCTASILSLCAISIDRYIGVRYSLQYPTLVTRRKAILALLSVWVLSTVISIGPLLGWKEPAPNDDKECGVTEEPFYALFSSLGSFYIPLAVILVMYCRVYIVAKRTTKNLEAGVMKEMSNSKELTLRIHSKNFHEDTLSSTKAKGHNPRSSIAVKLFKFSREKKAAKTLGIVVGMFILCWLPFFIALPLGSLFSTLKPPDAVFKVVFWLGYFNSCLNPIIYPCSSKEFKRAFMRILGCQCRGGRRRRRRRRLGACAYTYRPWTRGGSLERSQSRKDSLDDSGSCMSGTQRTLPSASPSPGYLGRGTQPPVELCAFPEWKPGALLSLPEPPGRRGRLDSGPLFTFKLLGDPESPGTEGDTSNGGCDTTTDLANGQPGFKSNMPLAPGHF
T2 sequence (P23944 whole entry): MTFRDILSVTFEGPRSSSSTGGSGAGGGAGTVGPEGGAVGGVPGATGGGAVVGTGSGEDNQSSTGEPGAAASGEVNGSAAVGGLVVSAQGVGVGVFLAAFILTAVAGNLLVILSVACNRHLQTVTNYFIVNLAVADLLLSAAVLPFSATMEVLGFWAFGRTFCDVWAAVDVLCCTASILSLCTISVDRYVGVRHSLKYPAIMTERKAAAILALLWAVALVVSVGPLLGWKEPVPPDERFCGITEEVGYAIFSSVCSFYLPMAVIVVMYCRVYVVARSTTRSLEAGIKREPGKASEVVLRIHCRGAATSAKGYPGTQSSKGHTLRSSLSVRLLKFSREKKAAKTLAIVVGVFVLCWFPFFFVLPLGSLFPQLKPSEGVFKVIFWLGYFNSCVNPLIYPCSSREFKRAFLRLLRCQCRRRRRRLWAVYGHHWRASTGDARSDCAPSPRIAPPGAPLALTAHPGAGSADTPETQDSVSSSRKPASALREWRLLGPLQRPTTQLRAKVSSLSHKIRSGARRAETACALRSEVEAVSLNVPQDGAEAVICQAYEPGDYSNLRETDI
T2 sequence (P43140 whole entry): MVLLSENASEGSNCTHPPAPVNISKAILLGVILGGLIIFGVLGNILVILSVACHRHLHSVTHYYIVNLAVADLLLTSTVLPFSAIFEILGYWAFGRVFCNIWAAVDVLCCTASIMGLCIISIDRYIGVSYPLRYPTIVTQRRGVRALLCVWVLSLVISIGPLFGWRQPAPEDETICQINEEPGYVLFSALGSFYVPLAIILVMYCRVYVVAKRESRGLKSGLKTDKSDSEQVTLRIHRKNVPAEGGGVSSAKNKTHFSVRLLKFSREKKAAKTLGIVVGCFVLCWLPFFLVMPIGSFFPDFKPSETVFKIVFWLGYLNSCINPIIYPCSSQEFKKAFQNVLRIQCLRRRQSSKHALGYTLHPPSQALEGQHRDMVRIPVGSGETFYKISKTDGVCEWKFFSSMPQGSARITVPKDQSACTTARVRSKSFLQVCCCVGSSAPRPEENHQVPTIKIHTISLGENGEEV

[3] = molecular target: T3, 5-hydroxytryptamine receptor 1A (Rattus norvegicus, UniProt P19327); assay: Inhibitory concentration against 5-hydroxytryptamine 1A receptor (Inactive at >1000 nM concentration)
T3 sequence (P19327 whole entry): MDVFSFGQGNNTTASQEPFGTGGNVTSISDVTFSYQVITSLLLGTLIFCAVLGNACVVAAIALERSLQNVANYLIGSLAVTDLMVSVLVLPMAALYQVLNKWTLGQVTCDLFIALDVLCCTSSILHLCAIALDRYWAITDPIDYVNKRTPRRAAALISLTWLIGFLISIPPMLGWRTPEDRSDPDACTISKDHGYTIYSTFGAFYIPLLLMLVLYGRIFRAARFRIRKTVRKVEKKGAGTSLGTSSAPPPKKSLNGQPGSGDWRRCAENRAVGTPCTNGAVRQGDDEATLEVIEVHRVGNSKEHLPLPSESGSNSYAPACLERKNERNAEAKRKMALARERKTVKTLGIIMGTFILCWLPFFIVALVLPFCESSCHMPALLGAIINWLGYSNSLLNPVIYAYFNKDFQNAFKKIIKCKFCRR

[4] = molecular target: D(2) dopamine receptor (Rattus norvegicus, UniProt P61169); assay: Inhibitory concentration against Dopamine receptor D2 (Inactive at >1000 nM concentration)
Chain of D(2) dopamine receptor (P61169 whole entry): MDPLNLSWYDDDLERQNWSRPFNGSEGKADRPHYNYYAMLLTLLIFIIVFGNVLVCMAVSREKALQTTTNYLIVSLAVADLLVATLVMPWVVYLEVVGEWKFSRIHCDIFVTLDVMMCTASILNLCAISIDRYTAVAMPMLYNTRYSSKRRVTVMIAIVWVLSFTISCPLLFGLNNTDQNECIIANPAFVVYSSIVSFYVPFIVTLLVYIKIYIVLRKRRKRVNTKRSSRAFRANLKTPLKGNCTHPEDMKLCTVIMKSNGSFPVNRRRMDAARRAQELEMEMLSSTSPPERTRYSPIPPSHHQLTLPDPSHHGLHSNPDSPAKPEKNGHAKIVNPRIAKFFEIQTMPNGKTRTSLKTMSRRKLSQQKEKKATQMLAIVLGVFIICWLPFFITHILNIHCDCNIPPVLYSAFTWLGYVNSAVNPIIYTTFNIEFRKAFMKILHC

[5] = molecular target: 5-hydroxytryptamine receptor 2A (Rattus norvegicus, UniProt P14842); assay: Inhibitory concentration against 5-hydroxytryptamine 2A receptor (Inactive at >1000 nM concentration)
Chain of 5-hydroxytryptamine receptor 2A (P14842 whole entry): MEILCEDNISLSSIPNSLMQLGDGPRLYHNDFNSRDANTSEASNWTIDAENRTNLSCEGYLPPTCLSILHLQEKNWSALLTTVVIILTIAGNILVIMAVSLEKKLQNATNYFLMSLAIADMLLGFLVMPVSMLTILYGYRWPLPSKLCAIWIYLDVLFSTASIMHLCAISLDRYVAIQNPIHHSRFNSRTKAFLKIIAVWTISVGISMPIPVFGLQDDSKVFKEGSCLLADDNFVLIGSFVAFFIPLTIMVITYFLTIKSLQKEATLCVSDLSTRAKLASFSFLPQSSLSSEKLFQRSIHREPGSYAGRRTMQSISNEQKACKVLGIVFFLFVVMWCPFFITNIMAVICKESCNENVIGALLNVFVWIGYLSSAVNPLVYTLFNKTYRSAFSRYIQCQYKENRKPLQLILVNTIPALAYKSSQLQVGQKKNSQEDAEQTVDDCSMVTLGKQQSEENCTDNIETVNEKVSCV

[6] = molecular target: T4, Alpha-1A adrenergic receptor (Rattus norvegicus, UniProt P43140); assay: The binding affinity towards Alpha-1A adrenergic receptor in the COS cell line.; assay type: cell-based
T4 sequence (P43140 whole entry): T2 sequence (P43140 whole entry)

[7] = system: Canis familiaris; assay: In vivo effect on urethral contractility (UP) of dog after intravenous administration.; assay type: functional, Canis lupus familiaris, Urethra
[8] = system: Canis familiaris; assay: In vivo hypotensive effect(DBP) in dog after intravenous administration.; assay type: functional, Canis lupus familiaris

IC50 [1] [nM] | IC50 [2] [nM] | pIC50 [3] | pIC50 [4] | pIC50 [5] | pKi [6] | Structure (SMILES) | ED50 [7] [mg/kg] | ED25 [8] [mg/kg]
> 1000 | 340 | < 6.00 | < 6.00 | < 6.00 | – | COc1cc2nc(N3CCNCC3)nc(N)c2cc1OC | – | –
> 1000 | 4.6 | < 6.00 | < 6.00 | < 6.00 | – | COc1cc2nc(N3CCN(C(=O)c4ccccc4)CC3)nc(N)c2cc1OC | – | –
> 1000 | 340 | < 6.00 | < 6.00 | < 6.00 | – | COc1cc2nc(N3CCN(C(=O)C(C)(C)C)CC3)nc(N)c2cc1OC | – | –
> 1000 | 259 | < 6.00 | < 6.00 | < 6.00 | – | COc1cc2nc(N3CCC(c4ccccc4)(c4ccccc4)CC3)nc(N)c2cc1OC | – | –
> 1000 | 85 | < 6.00 | < 6.00 | < 6.00 | – | COc1cc2nc(N(C)CCC(c3ccccc3)c3ccccc3)nc(N)c2cc1OC | – | –
> 1000 | 3140 | < 6.00 | < 6.00 | < 6.00 | – | COc1cc2nc(N[C@H](C)Cc3ccc(OC)c(S(N)(=O)=O)c3)nc(N)c2cc1OC | – | –
> 1000 | > 1000 | < 6.00 | < 6.00 | < 6.00 | – | COc1cc2nc(N3CC[N+]([O-])(Cc4ccccc4)CC3)nc(N)c2cc1OC | – | –
> 1000 | 40 | < 6.00 | < 6.00 | < 6.00 | – | COc1cc2nc(N3CCN(C(c4ccccc4)c4ccccc4)CC3)nc(N)c2cc1OC | – | –
> 1000 | 45 | < 6.00 | < 6.00 | < 6.00 | – | COc1cc2nc(N3CCN(C(C)=O)CC3)nc(N)c2cc1OC | – | –
> 1000 | 70 | < 6.00 | < 6.00 | < 6.00 | – | COc1cc2nc(N(C)Cc3ccccc3)nc(N)c2cc1OC | – | –
> 1000 | 5080 | < 6.00 | < 6.00 | < 6.00 | – | COc1cc2nc(N3CCN(C(C)=O)CC3)nc(NC(C)=O)c2cc1OC | – | –
> 1000 | 4.1 | < 6.00 | < 6.00 | < 6.00 | – | COc1cc2nc(N3CCc4ccccc4C3)nc(N)c2cc1OC | – | –
> 1000 | 49 | < 6.00 | < 6.00 | < 6.00 | – | COc1cc2nc(N3CCN(C(=O)C(C)(C)Oc4ccccc4OC)CC3)nc(N)c2cc1OC | – | –
> 1000 | 6 | < 6.00 | < 6.00 | < 6.00 | 7.44 | COc1cc2nc(N3CCN(C(=O)COc4c(OC)cccc4OC)CC3)nc(N)c2cc1OC | – | –
> 1000 | 111 | < 6.00 | < 6.00 | < 6.00 | – | COc1cc2nc(N3CCN(OCc4ccccc4)CC3)nc(N)c2cc1OC | – | –
> 1000 | 3.2 | < 6.00 | < 6.00 | < 6.00 | – | COc1cc2nc(N3CCN(C(=O)C(c4ccccc4)c4ccccc4)CC3)nc(N)c2cc1OC | – | –
> 1000 | 32 | < 6.00 | < 6.00 | < 6.00 | – | COc1cc2nc(N3CCN(Cc4ccccc4)CC3)nc(N)c2cc1OC | – | –
> 1000 | 1.6 | < 6.00 | < 6.00 | < 6.00 | – | COc1cc2nc(N3CCc4c(ccc5ccccc45)C3)nc(N)c2cc1OC | – | –
> 1000 | 0.2 | < 6.00 | < 6.00 | < 6.00 | – | COc1cc2c(cc1OC)CN(c1nc(N)c3cc(OC)c(OC)cc3n1)CC2 | – | –
> 1000 | 4 | < 6.00 | < 6.00 | < 6.00 | 8.12 | COc1cc2nc(N3CCN(C(=O)COc4c(OC)cccc4C(C)C)CC3)nc(N)c2cc1OC | 0.065 | 0.183
> 1000 | 1180 | < 6.00 | < 6.00 | < 6.00 | – | COc1cc2nc(N3CCN(C(=O)C(C)(C)Oc4c(OC)cccc4C(C)C)CC3)nc(N)c2cc1OC | – | –
